According to patent US12281121B2, “N-containing heteroaryl derivative and pharmaceutical composition comprising same as active ingredient for prevention or treatment of cancer” (VORONOI Inc., priority 2019, dated 2025):

Key:
[1] = target: T1, RET (WT) (Homo sapiens, UniProt P07949); assay: RET enzyme inhibitory ability, ADP-Glo kinase assay; format: biochemical; conditions: ATP 10 μM, 25° C., 1 hour
T1 construct: human RET (658-end, SIGNALCHEM); purchased SIGNALCHEM
T1 sequence (P07949 658-1114 limits assumed): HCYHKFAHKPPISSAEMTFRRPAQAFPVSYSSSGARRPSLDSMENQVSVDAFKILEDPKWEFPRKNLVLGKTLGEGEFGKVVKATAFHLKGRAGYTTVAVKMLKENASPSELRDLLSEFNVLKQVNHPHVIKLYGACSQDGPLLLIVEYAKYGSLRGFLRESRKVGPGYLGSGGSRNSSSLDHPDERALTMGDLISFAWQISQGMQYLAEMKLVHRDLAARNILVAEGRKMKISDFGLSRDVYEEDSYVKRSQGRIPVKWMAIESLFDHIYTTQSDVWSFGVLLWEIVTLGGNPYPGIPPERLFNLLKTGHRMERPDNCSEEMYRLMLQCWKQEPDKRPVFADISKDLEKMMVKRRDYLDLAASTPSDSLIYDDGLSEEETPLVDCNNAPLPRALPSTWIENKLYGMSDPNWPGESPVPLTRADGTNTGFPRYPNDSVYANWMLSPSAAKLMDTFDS
Method: The Example compound was reacted with a purified human RET (658-end, SIGNALCHEM) enzyme to evaluate the enzyme inhibitory ability by the following method. As a reaction buffer, a composition of 40 mM Tris-HCl pH 7.4, 20 mM MgCl2, 0.5 mg/mL BSA, and 50 μM DTT was used, and all experimental materials were reacted on the reaction buffer. After the human RET (658-end, 0.8 ng) enzyme was reacted with purified ATP (10 μM) and a specific substrate solution at 25° C. for 1 hour during the experiment, the enzyme activity was confirmed using in vitro ADP-Glo™ kinase assay (Promega). Luminescence was measured by reacting the enzyme activity reaction solution, the ADP-Glo reaction solution, and the enzyme activity detection solution at a ratio of 2:2:1. The degree of inhibition of enzyme activity according to the treatment concentration of each compound was calculated based on the […] of the enzyme activity of a solvent control group in which a compound was not treated, and in this case, the concentration of each compound which suppresses the […] enzyme activity by 50% was determined as an IC50 (nM) value. The IC50 (nM) of each compound was determined by 3 datasets and obtained using Prism (version 7.01, GraphPad) software.
In the enzyme assay column, RET (WT) is a non-mutated form, RET (V804M) is a mutated form in which the V amino acid at position 804 of the RET is substituted with M, and CCDC6-RET is a form in which the RET (WT) gene and CCDC6 gene are fused.

[2] = tested on: Ba/F3 (naive) cells; assay: Cell proliferation inhibition, CellTiter-Glo; format: cell-based; conditions: Mus musculus, BaF3; Ba/F3 not transduced, 72 hours
Method: (§1) Among lung cancer cell lines, which express RET fusion genes, LC-2/ad cells were cultured after adding 10% FBS (HyClone) to RPMI:F12 (1:1) (Invitrogen), and F-12 (Invitrogen) supplemented with 10% FBS was used for TT cells. RPMI-1640 supplemented with 10% FBS and 5 ng/ml IL-3 (R&D Systems) was used for Ba/F3 cells. Transduced Ba/F3 cells were cultured by adding 1 ug/ml puromycin (Invitrogen) to the same medium. 24 hours before cells were treated with the compound, 3000 to 5000 cells were aliquoted into each well of a white clear bottom 96 well plate (Corning). The compound was diluted in DMSO (3-fold dilution, a total of 12 concentrations) and the compound was injected by 0.5 μl such that the final concentration was 0.3 nM to 50 μM. For the measurement of living cells, 72 hours after the compound treatment, the cells were stored at room temperature for 10 minutes using a CellTiter-Glo luminescent cell-viability agent (Promega), and then the luminescence intensity was measured using a reader (SynergyNeo, Biotek). Each experiment was repeated in triplicate. The result value was calculated by the cell growth ratio (%) compared to the control. A graph was drawn using the GraphPad Prism version 5.0 program, and a GI50 (nM) value was calculated.
(§2) In the cell assay column, LC-2/ad (with CCDC6-RET gene) is a lung cancer cell line, a TT cell line ([…]) is a thyroid cancer cell line, Ba/F3 CCDC6-RET (WT), Ba/F3 KIF5B-RET (WT), and Ba/F3 KIF5B-RET (V804M) are cells in which disease-related traits (CCDC6-RET, KIF5B-RET, and KIF5B-RET (V804M)) are introduced into Ba/F3 cells, and Ba/F3 (naive) is a cell which is not transduced.

[3] = tested on: Ba/F3 KIF5B-RET (V804M) cells; assay: Cell proliferation inhibition, CellTiter-Glo; format: cell-based; conditions: Mus musculus, BaF3, 72 hours
Method: as §1, §2

[4] = tested on: TT cells; assay: Cell proliferation inhibition, CellTiter-Glo; format: cell-based; conditions: Homo sapiens; TT thyroid cancer cell line, 72 hours
Method: as §1, §2

[5] = tested on: Ba/F3 CCDC6-RET (WT) cells; assay: Cell proliferation inhibition, CellTiter-Glo; format: cell-based; conditions: BaF3/CCDC6-RET, 72 hours
Method: as §1, §2

[6] = tested on: Ba/F3 KIF5B-RET (WT) cells; assay: Cell proliferation inhibition, CellTiter-Glo; format: cell-based; conditions: Mus musculus, BaF3, 72 hours
Method: as §1, §2

| Structure (SMILES) | IC50 [1] [nM] | GI50 [2] [nM] | GI50 [3] [nM] | GI50 [4] [nM] | GI50 [5] [nM] | GI50 [6] [nM] |
| --- | --- | --- | --- | --- | --- | --- |
| COc1ccc(CN2C3CC2CN(c2ccc(-c4nc(Nc5cc(C(F)(F)F)[nH]n5)c5occc5n4)cn2)C3)cn1 [Example 4, 2-(6-(6-((6-methoxypyridin-3-yl)methyl)-3,6-diazabicyclo [3.1.1]heptan-3-yl)pyridin-3-yl)-N-(5-(trifluoromethyl)-1H-pyrazol-3-yl)furo[3,2-d]pyrimidin-4-amine] | > 15000 | > 15000 | > 15000 | > 15000 |  |  |
| COc1ccc(CN2C3CC2CN(c2ccc(-c4nc(Nc5cc(C)[nH]n5)c5sccc5n4)cn2)C3)cn1 [Example 2, 2-(6-(6-((6-methoxypyridin-3-yl)methyl)-3,6-diazabicyclo [3.1.1]heptan-3-yl)pyridin-3-yl)-N-(5-methyl-1H-pyrazol-3-yl)thieno[3,2-d]pyrimidin-4-amine] | 12 | 4380 | 14 | 48 | 49 | 11 |
| COc1ccc(CN2C3CC2CN(c2ccc(-c4nc5c(c(Nc6cc(C)[nH]n6)n4)CCC5)cn2)C3)cn1 [Example 7, 2-(6-(6-((6-methoxypyridin-3-yl)methyl)-3,6-diazabicyclo [3.1.1]heptan-3-yl)pyridin-3-yl)-N-(5-methyl-1H-pyrazol-3-yl)-6,7-dihydro-5H-cyclopenta[d]py-rimidin-4-amine] | 10 | 6070 | 7 | 41 | 45 | 15 |
